In one experiment the target is T1, human CGT (Homo sapiens, UniProt Q16880).
T1 sequence (Q16880 21-541): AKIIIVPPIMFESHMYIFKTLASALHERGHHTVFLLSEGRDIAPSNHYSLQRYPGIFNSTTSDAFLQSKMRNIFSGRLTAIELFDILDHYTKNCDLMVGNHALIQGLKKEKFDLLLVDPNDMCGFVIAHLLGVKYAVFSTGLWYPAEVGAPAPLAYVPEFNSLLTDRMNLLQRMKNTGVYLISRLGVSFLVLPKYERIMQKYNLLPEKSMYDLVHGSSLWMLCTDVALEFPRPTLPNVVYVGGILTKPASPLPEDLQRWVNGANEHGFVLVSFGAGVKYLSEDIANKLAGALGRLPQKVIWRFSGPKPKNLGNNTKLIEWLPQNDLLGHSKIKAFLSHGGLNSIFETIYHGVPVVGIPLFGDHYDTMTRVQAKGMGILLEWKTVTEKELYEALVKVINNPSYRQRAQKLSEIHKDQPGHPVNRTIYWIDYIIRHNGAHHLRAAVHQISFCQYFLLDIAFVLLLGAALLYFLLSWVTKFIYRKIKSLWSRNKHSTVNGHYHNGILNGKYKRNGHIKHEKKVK
The experiment is described as follows: Assay 1: CGT Enzymatic Assay (RapidFire/MS/MS, 0.01% Tween 80). To be noted: Table 1, Compounds of Formula (I) and Formula (II); CGT enzymatic assay, C6-NBD-dihydro-galactosylceramide readout; read-out: IC50. In kind it is biochemical.
In general, IC50 refers to the concentration that gives 50% inhibition. Consider `COC[C@@]1(C)N(c2ccc(Cl)cc2)C(=O)N(c2ccc(Cl)cc2)[C@@]1(O)c1cccc(OC(F)(F)F)c1` [Compound 296-1, (4R,5R)-1,3-bis(4-chlorophenyl)-4-hydroxy-5-(methoxymethyl)-5-methyl-4-(3-(trifluoromethoxy)phenyl)imidazolidin-2-one], for which the IC50 lay in the range of 1000 to 10000 nM.
For the molecule `CC[C@@]1(C)N(c2ccc(C#N)cc2)C(=O)N(c2ccc(C#N)cc2)C1(O)c1cccc(OC(F)(F)F)c1` (stereo partly drawn) [Example 319-1, 4,4′-((4R)-4-ethyl-5-hydroxy-4-methyl-2-oxo-5-(3-(trifluoromethoxy)phenyl)imidazolidine-1,3-diyl)dibenzonitrile], the concentration for half-maximal inhibition (IC50) is under 1000 nM.
In the case of `CN1CC2(C1)N(c1ccc(Cl)cc1)C(=O)N(c1ccc(Cl)cc1)C2(O)c1cccc(C#N)c1` (stereo not shown) [Compound 301, 3-(5,7-bis(4-chlorophenyl)-8-hydroxy-2-methyl-6-oxo-2,5,7-triazaspiro[3.4]octan-8-yl)benzonitrile 2,2,2-trifluoroacetate], the half-inhibitory concentration (IC50) was under 1000 nM.
On the same count and under the same terms, for `Cc1ccc(N2C(=O)N(c3ccc(C#N)cc3)C(O)(c3cccc(OC(F)(F)F)c3)C23COC3)cc1` (stereo not shown) [Example 307, 4-(8-hydroxy-6-oxo-5-(p-tolyl)-8-(3-(trifluoromethoxy)phenyl)-2-oxa-5,7-diazaspiro[3.4]octan-7-yl)benzonitrile] the value was under 1000 nM.
Consider `C[C@]1(C(F)(F)F)N(c2ccc(Cl)cc2)C(=O)N(c2ccc(Cl)cc2)C1(O)c1cc(C#N)cc(C#N)c1` (stereo partly drawn) [Example 331-1, 5-((5S)-1,3-bis(4-chlorophenyl)-4-hydroxy-5-methyl-2-oxo-5-(trifluoromethyl)imidazolidin-4-yl)isophthalonitrile], for which the half-maximal inhibitory concentration (IC50) is under 1000 nM.
As for `CC1(C)N(c2ccc(Cl)cc2)C(=O)N(c2ccc(C#N)cc2)C1(O)c1cccc(OC(F)(F)F)c1` (stereo not shown) [Compound 273, 4-(3-(4-chlorophenyl)-5-hydroxy-4,4-dimethyl-2-oxo-5-(3-(trifluoromethoxy)phenyl)imidazolidin-1-yl)benzonitrile], the IC50 is under 1000 nM.
As for `N#Cc1ccc(N2C(=O)N(c3ccc(Cl)cc3)C3(CCC3)C2(O)c2cccc(OC(F)(F)F)c2)cc1` (stereo not shown) [Compound 288, 4-(5-(4-chlorophenyl)-8-hydroxy-6-oxo-8-(3-(trifluoromethoxy)phenyl)-5,7-diazaspiro[3.4]octan-7-yl)benzonitrile], the concentration for half-maximal inhibition (IC50) was under 1000 nM.
In the case of `COc1ccc(N2C(=O)N(c3ccc(OC)cc3)C(O)(c3cccc(OC(F)(F)F)c3)C2C(C)C)cc1` (racemic) [Example 329, (5S)-4-hydroxy-5-isopropyl-1,3-bis(4-methoxyphenyl)-4-(3-(trifluoromethoxy)phenyl)imidazolidin-2-one and (5R)-4-hydroxy-5-isopropyl-1,3-bis(4-methoxyphenyl)-4-(3-(trifluoromethoxy)phenyl)imidazolidin-2-one], the half-inhibitory concentration (IC50) was under 1000 nM.

Still in this experiment, the particulars now being: Table 1, Compounds of Formula (I) and Formula (II); CGT enzymatic assay; read-out: IC50.
Consider `C[C@H]1N(c2ccc(Br)cc2)C(=O)N(c2ccc(Br)cc2)C1(O)c1cccs1` (stereo partly shown) [Example 49-2], for which the IC50 lay within 1000 to 10000 nM.
Regarding `O=C1N(c2ccc(Cl)cc2)C2(COC2)C(O)(c2cccc(OC(F)(F)F)c2)N1c1ccc(Cl)cc1` (stereo not shown) [Compound 150, 5,7-bis(4-chlorophenyl)-8-hydroxy-8-(3-(trifluoromethoxy)phenyl)-2-oxa-5,7-diazaspiro[3.4]octan-6-one], the IC50 was under 1000 nM.
For the molecule `CCC1(O)C(=O)N(c2ccc(Br)cc2)C(=O)N1c1ccc(Br)cc1` (stereo not shown) [Compound 143, 1,3-bis(4-bromophenyl)-5-ethyl-5-hydroxyimidazolidine-2,4-dione], the concentration for half-maximal inhibition (IC50) fell in the range of 10000 to 50000 nM.
As for `Cc1cc(C)cc(C2(O)C(C)N(c3ccc(Br)cc3)C(=O)N2c2ccc(Br)cc2)c1` (stereo not shown) [Example 42], the half-inhibitory concentration (IC50) is under 1000 nM.
On the same count and under the same terms, for `O=C1N(c2ccc(Cl)cc2)[C@]2(CCOC2)[C@](O)(c2cccc(OC(F)(F)F)c2)N1c1ccc(Cl)cc1` [Compound 234-1, (4R,5S)-1,3-bis(4-chlorophenyl)-4-hydroxy-4-(3-(trifluoromethoxy)phenyl)-7-oxa-1,3-diazaspiro[4.4]nonan-2-one] the value was under 1000 nM.
Regarding `CC1(O)C(=O)N(c2ccc(Br)cc2)C(=O)N1c1ccc(Br)cc1` (stereo not shown) [Example 193, 1,3-bis(4-bromophenyl)-5-hydroxy-5-methylimidazolidine-2,4-dione], the IC50 fell in the range of 50000 to 100000 nM.
As for `CCC1(O)C(c2ccccc2)N(c2ccc(Br)cc2)C(=O)N1c1ccc(Br)cc1` (stereo not shown) [Example 45], the IC50 fell in the range of 1000 to 10000 nM.
Turning to `Cc1ccc(N2C(=O)N(c3ccc(C)cc3)C(O)(c3cccc(OC(F)(F)F)c3)C2(C)C)cc1` (stereo not shown) [Example 176, 4-hydroxy-5,5-dimethyl-1,3-di-p-tolyl-4-(3-(trifluoromethoxy)phenyl)-imidazolidin-2-one], the 50% inhibitory concentration (IC50) is under 1000 nM.
For `N#Cc1cccc(C2(O)CN(c3ccc(Cl)cc3)C(=O)N2c2ccc(Cl)cc2)c1` (stereo not shown) [Compound 63, 3-(1,3-bis(4-chlorophenyl)-4-hydroxy-2-oxoimidazolidin-4-yl)benzonitrile], the concentration for half-maximal inhibition (IC50) is under 1000 nM.
With `O=C1N(c2ccc(I)cc2)C(=O)C(O)(c2ccccc2)N1c1ccc(I)cc1` (stereo not shown) [Example 203, 5-hydroxy-1,3-bis(4-iodophenyl)-5-phenylimidazolidine-2,4-dione], the IC50 lay in the range of 10000 to 50000 nM.
Still for that read-out and setting: the same measure for `CCc1ccc(N2C(=O)N(c3ccc(CC)cc3)C(O)(c3cccc(C#N)c3)[C@@H]2C)cc1` (single isomer, unassigned) [Compound 104-1]: 10000 to 50000 nM.
Turning to `CC1(C)N(c2ccc(C(F)(F)F)cc2)C(=O)N(c2ccc(C(F)(F)F)cc2)C1(O)c1cccc(C#N)c1` (stereo not shown) [Example 192, 3-(4-hydroxy-5,5-dimethyl-2-oxo-1,3-bis(4-(trifluoromethyl)phenyl)-imidazolidin-4-yl)benzonitrile], the half-maximal inhibitory concentration (IC50) was under 1000 nM.
On to `CC1N(c2ccc(Br)cc2)C(=O)N(c2ccc(Br)cc2)C1(O)c1cccc(OC(F)(F)F)c1` (stereo not shown) [Compound 66, 1,3-bis(4-bromophenyl)-4-hydroxy-5-methyl-4-(3-(trifluoromethoxy)phenyl)imidazolidin-2-one], for which the IC50 was under 1000 nM.
In the case of `CC1(C(F)(F)F)N(c2ccc(Cl)cc2)C(=O)N(c2ccc(Cl)cc2)C1(O)c1cccc(OC(F)(F)F)c1` (stereo not shown) [Example 159, 1,3-bis(4-chlorophenyl)-4-hydroxy-5-methyl-4-(3-(trifluoromethoxy)phenyl)-5-(trifluoromethyl)imidazolidin-2-one], the IC50 is under 1000 nM.
On the same count and under the same terms, for `CC1(C)N(c2ccc(Cl)cc2)C(=O)N(c2ccc(Cl)cc2)C1(O)c1cccc(C(F)(F)F)c1` (stereo not shown) [Compound 134, 1,3-bis(4-chlorophenyl)-4-hydroxy-5,5-dimethyl-4-(3-(trifluoromethyl)phenyl)imidazolidin-2-one] the value was under 1000 nM.
On the same count and under the same terms, for `C[C@@H]1N(c2ccc(Br)cc2)C(=O)N(c2ccc(Br)cc2)C1(O)c1ccccc1` (stereo partly shown) [Example 13-1] the value was under 1000 nM; for `C[C@]1(c2ccccc2)C(O)N(c2ccc(Cl)cc2)C(=O)N1c1ccc(Cl)cc1` (single isomer, unassigned) [Example 223-1], 10000 to 50000 nM.
The same measure, in the same setting: for `O=C1N(c2ccc(Br)cc2)CC(O)(c2ccccc2)N1c1ccccc1` (stereo not shown) [Example 28, 1-(4-bromophenyl)-4-hydroxy-3,4-diphenylimidazolidin-2-one] the value was 10000 to 50000 nM; for `N#Cc1cccc(-c2c(C3CC3)n(-c3ccc(Cl)cc3)c(=O)n2-c2ccc(Cl)cc2)c1` [Example 48, 3-(1,3-bis(4-chlorophenyl)-5-cyclopropyl-2-oxo-2,3-dihydro-1H-imidazol-4-yl)benzonitrile], under 1000 nM; for `CCCC1N(c2ccc(Br)cc2)C(=O)N(c2ccc(Br)cc2)C1(O)c1cccc(CC)c1` (stereo not shown) [Compound 88, 1,3-bis(4-bromophenyl)-4-(3-ethylphenyl)-4-hydroxy-5-propylimidazolidin-2-one], under 1000 nM.
On to `O=c1n(-c2ccc(Cl)cc2)c(-c2cccc(OC(F)F)c2)c(C2CC2)n1-c1ccc(Cl)cc1` [Compound 70, 1,3-bis(4-chlorophenyl)-4-cyclopropyl-5-(3-(difluoromethoxy)phenyl)-1,3-dihydro-2H-imidazol-2-one], for which the half-maximal inhibitory concentration (IC50) is under 1000 nM.
On to `CC[C@]1(C)N(c2ccc(Cl)cc2)C(=O)N(c2ccc(Cl)cc2)C1(O)c1cccc(C#N)c1` (single isomer, unassigned) [Example 185-2], for which the half-maximal inhibitory concentration (IC50) was under 1000 nM.
For `CCC[C@@H]1N(c2ccc(Cl)cc2)C(=O)N(c2ccc(Cl)cc2)C1(O)c1cccc(CC)c1` (stereo partly drawn) [Compound 89-1, (5S)-1,3-bis(4-chlorophenyl)-4-(3-ethylphenyl)-4-hydroxy-5-propylimidazolidin-2-one], the concentration for half-maximal inhibition (IC50) was under 1000 nM.
In the case of `CCc1ccc(N2C(=O)N(c3ccc(CC)cc3)C(O)(c3cccc(C#N)c3)C2C)cc1` (stereo not shown) [Compound 104, 3-(1,3-bis(4-ethylphenyl)-4-hydroxy-5-methyl-2-oxoimidazolidin-4-yl)benzonitrile], the concentration for half-maximal inhibition (IC50) is under 1000 nM.
The same measure, in the same setting: the same measure for `N#Cc1cccc(C2(O)N(c3ccc(Cl)cc3)C(=O)N(c3ccc(Cl)cc3)[C@]23CCOC3)c1` (stereo partly drawn) [Example 221-1, 3-((5S)-1,3-bis(4-chlorophenyl)-4-hydroxy-2-oxo-7-oxa-1,3-diazaspiro[4.4]nonan-4-yl)benzonitrile]: under 1000 nM; for `CCCc1c(-c2cccc(CC)c2)n(-c2ccc(Cl)cc2)c(=O)n1-c1ccc(Cl)cc1` [Compound 244, 1,3-bis(4-chlorophenyl)-4-(3-ethylphenyl)-5-propyl-1,3-dihydro-2H-imidazol-2-one]: 1000 to 10000 nM.

Source of the values: US20190134005A1 (BioMarin Pharmaceutical Inc., priority 2016, published 2019).
